We go through 6 cell lines from the supplement of paper PMC10307832.

What all share (test): relative viability (nuclei count vs DMSO), 5 days (fraction); higher = more cells survive
Compound in the assay “Tosedostat + Olaparib”: CC(C)C[C@@H](C(=O)N[C@H](C(=O)OC1CCCC1)c1ccccc1)[C@H](O)C(=O)NO [Tosedostat] + O=C(c1cc(Cc2n[nH]c(=O)c3ccccc23)ccc1F)N1CCN(C(=O)C2CC2)CC1 [Olaparib] (partner 8 µM)
Summed up: (§1)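 Relative viability was taken as the ratio of nuclei in treated wells to nuclei in vehicle wells. Lung cancer cell lines in 1536-well plates received compounds by pin tool one day after seeding, either one drug alone or a fixed anchor-drug dose plus five library-drug doses (not always all listed) in √10 steps. Nuclei were counted on 4× images after 5 days of treatment, and values are medians of duplicate plates.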

Compound in the assay “Tosedostat + AZD7762”: CC(C)C[C@@H](C(=O)N[C@H](C(=O)OC1CCCC1)c1ccccc1)[C@H](O)C(=O)NO [Tosedostat] + NC(=O)Nc1cc(-c2cccc(F)c2)sc1C(=O)N[C@H]1CCCNC1 [AZD7762] (partner 0.2 µM)
Summed up: as §1

Compound in assay [1]: CC1=NN=C(O1)C2=NN=C(C=C2)N3CCC(CC3)OC4=C(C=CC(=C4)F)Cl + COc1cc2c(Oc3ccc(NC(=O)C4(C(=O)Nc5ccc(F)cc5)CC4)cc3F)ccnc2cc1OCCCN1CCOCC1 [Foretinib] (partner 0.25 µM)
Summed up:
as §1

Compound in assay [2]: CC1=NN=C(O1)C2=NN=C(C=C2)N3CCC(CC3)OC4=C(C=CC(=C4)F)Cl + C[C@@H](Oc1cc(-c2cnn(C3CCNCC3)c2)cnc1N)c1c(Cl)ccc(F)c1Cl [Crizotinib] (partner 1 µM)
Summed up: as §1

Consider NCI-H1975, for which the relative viability with Tosedostat + Olaparib (first compound 0.02 µM) was found to be 0.909; in the assay with Tosedostat + Olaparib (first compound 0.06325 µM), 0.8; with Tosedostat + Olaparib (first compound 0.2 µM), 0.824; with Tosedostat + Olaparib (first compound 0.6325 µM), 0.63; in the assay with Tosedostat + Olaparib (first compound 2 µM), 0.659; in the assay with Tosedostat + AZD7762 (first compound 0.02 µM), 0.768. Besides, the relative viability was 0.776 with Tosedostat + AZD7762 (first compound 0.06325 µM); 0.7 with Tosedostat + AZD7762 (first compound 0.2 µM); 0.654 with Tosedostat + AZD7762 (first compound 0.6325 µM); 0.608 with Tosedostat + AZD7762 (first compound 2 µM); 0.929 in assay [1] (first compound 0.8 µM); 0.834 in assay [1] (first compound 2.53 µM). Besides, the relative viability in assay [1] (first compound 8 µM) was determined as 0.757; in assay [2] (first compound 0.8 µM), 0.918; in assay [2] (first compound 2.53 µM), 0.782; in assay [2] (first compound 8 µM) it was 0.777.

In the case of NCI-H1993, the relative viability came out at 1.13 in the assay with Tosedostat + Olaparib (first compound 0.02 µM); 1.04 in the assay with Tosedostat + Olaparib (first compound 0.06325 µM); 0.943 in the assay with Tosedostat + Olaparib (first compound 0.2 µM); 0.736 in the assay with Tosedostat + Olaparib (first compound 0.6325 µM); 0.769 with Tosedostat + Olaparib (first compound 2 µM); 0.678 in the assay with Tosedostat + AZD7762 (first compound 0.02 µM). The relative viability is 0.64 with Tosedostat + AZD7762 (first compound 0.06325 µM); 0.741 with Tosedostat + AZD7762 (first compound 0.2 µM); 0.556 in the assay with Tosedostat + AZD7762 (first compound 0.6325 µM); 0.493 with Tosedostat + AZD7762 (first compound 2 µM); 0.664 in assay [1] (first compound 0.253 µM); 0.682 in assay [1] (first compound 0.8 µM). Further, the relative viability was 0.709 in assay [1] (first compound 2.53 µM); 0.7 in assay [1] (first compound 8 µM); 0.779 in assay [2] (first compound 0.253 µM); 0.806 in assay [2] (first compound 0.8 µM); 0.794 in assay [2] (first compound 2.53 µM); 0.993 in assay [2] (first compound 8 µM).

For NCI-H2085, the relative viability with Tosedostat + Olaparib (first compound 0.06325 µM) turned out to be 0.86; with Tosedostat + Olaparib (first compound 0.2 µM), 0.784; with Tosedostat + Olaparib (first compound 0.6325 µM), 0.784; with Tosedostat + Olaparib (first compound 2 µM), 0.782; with Tosedostat + AZD7762 (first compound 0.06325 µM), 1.03; with Tosedostat + AZD7762 (first compound 0.2 µM), 1.05. The relative viability in the assay with Tosedostat + AZD7762 (first compound 0.6325 µM) stood at 0.973; with Tosedostat + AZD7762 (first compound 2 µM), 0.965; in assay [1] (first compound 0.253 µM), 0.808; in assay [1] (first compound 2.53 µM), 0.744; in assay [1] (first compound 8 µM), 0.698; in assay [2] (first compound 0.253 µM) it was 0.76. The relative viability was found to be 0.656 in assay [2] (first compound 0.8 µM), 0.821 in assay [2] (first compound 2.53 µM) and 0.683 in assay [2] (first compound 8 µM).

In the case of NCI-H2087, the relative viability with Tosedostat + Olaparib (first compound 0.02 µM) was 0.698; with Tosedostat + Olaparib (first compound 0.06325 µM) it was 0.562; in the assay with Tosedostat + Olaparib (first compound 0.2 µM), 0.558; in the assay with Tosedostat + Olaparib (first compound 0.6325 µM), 0.339; in the assay with Tosedostat + Olaparib (first compound 2 µM), 0.36; in the assay with Tosedostat + AZD7762 (first compound 0.02 µM) it was 1.52. The relative viability with Tosedostat + AZD7762 (first compound 0.06325 µM) was determined as 1.31; in the assay with Tosedostat + AZD7762 (first compound 0.2 µM) it was 1.22; with Tosedostat + AZD7762 (first compound 0.6325 µM), 1.2; with Tosedostat + AZD7762 (first compound 2 µM), 1.24; in assay [1] (first compound 0.253 µM), 0.593; in assay [1] (first compound 0.8 µM), 0.641. Further, the relative viability worked out at 0.626 in assay [1] (first compound 2.53 µM); 0.489 in assay [1] (first compound 8 µM); 0.652 in assay [2] (first compound 0.253 µM); 0.598 in assay [2] (first compound 0.8 µM); 0.544 in assay [2] (first compound 2.53 µM); 0.486 in assay [2] (first compound 8 µM).

On to NCI-H2126, for which the relative viability was 0.897 in the assay with Tosedostat + Olaparib (first compound 0.02 µM); 0.979 with Tosedostat + Olaparib (first compound 0.06325 µM); 0.843 with Tosedostat + Olaparib (first compound 0.2 µM); 0.769 with Tosedostat + Olaparib (first compound 0.6325 µM); 0.757 in the assay with Tosedostat + Olaparib (first compound 2 µM); 0.99 in the assay with Tosedostat + AZD7762 (first compound 0.02 µM). The relative viability with Tosedostat + AZD7762 (first compound 0.06325 µM) was determined as 1.03; with Tosedostat + AZD7762 (first compound 0.2 µM), 0.919; in the assay with Tosedostat + AZD7762 (first compound 0.6325 µM), 0.974; in the assay with Tosedostat + AZD7762 (first compound 2 µM) it was 0.953; in assay [1] (first compound 0.253 µM), 0.982; in assay [1] (first compound 0.8 µM), 0.932. Also, the relative viability came to 0.958 in assay [1] (first compound 2.53 µM); 0.985 in assay [1] (first compound 8 µM); 0.921 in assay [2] (first compound 0.253 µM); 0.858 in assay [2] (first compound 0.8 µM); 0.891 in assay [2] (first compound 2.53 µM); 0.841 in assay [2] (first compound 8 µM).

In the case of NCI-H2170, the relative viability with Tosedostat + Olaparib (first compound 0.02 µM) worked out at 0.579; with Tosedostat + Olaparib (first compound 0.06325 µM), 0.513; in the assay with Tosedostat + Olaparib (first compound 0.2 µM), 0.686; in the assay with Tosedostat + Olaparib (first compound 0.6325 µM), 0.574; in the assay with Tosedostat + Olaparib (first compound 2 µM) it was 0.613; with Tosedostat + AZD7762 (first compound 0.02 µM) it was 0.85. Further, the relative viability came out at 0.94 in the assay with Tosedostat + AZD7762 (first compound 0.06325 µM); 0.948 in the assay with Tosedostat + AZD7762 (first compound 0.2 µM); 0.976 with Tosedostat + AZD7762 (first compound 0.6325 µM); 0.892 in the assay with Tosedostat + AZD7762 (first compound 2 µM); 0.466 in assay [1] (first compound 0.253 µM); 0.575 in assay [1] (first compound 0.8 µM). The relative viability stood at 0.583 in assay [1] (first compound 2.53 µM); 0.432 in assay [1] (first compound 8 µM); 0.553 in assay [2] (first compound 0.253 µM); 0.573 in assay [2] (first compound 0.8 µM); 0.638 in assay [2] (first compound 2.53 µM); 0.449 in assay [2] (first compound 8 µM).
